Data as given in patent US20050272055A1 (priority 2000, published 2005).
“Also recorded” adds a separate entry of the source.

Experiments:
piglets [1] = details: in vivo
TNF-α = format: cell-based, human
human lymphoid cells = format: cell-based
piglets [2] = system: piglets; design: species or system Yorkshire piglets; details: in vivo
CD69 = format: cell-based, human

Molecule: 1,2,3,9-tetrahydro-9-methyl-3-[(2-methyl-1H-imidazol-1-yl)]4H-carbazol-4-one,monohychloride, dehydrate [Zofran]
- BP-24 h (systolic blood pressure) (piglets [1]): 50-60
- BP-48 h (systolic blood pressure) (piglets [1]): 50-65
- Blood Gases (piglets [1]): norm
- Temp-24 h (piglets [1]): 101-103°
- Temp-48 h (piglets [1]): 100-103°
- blood pressure levels in treated and untreated animals (piglets [1]): no change in the blood pressure
- cytokine surge (piglets [1]): blocks the cytokine surge
- diarrhea (piglets [1]): diarrhea was stopped
- effectiveness as 5-HT receptor blockers against SEB-induced incapacitation (piglets [1]): effective
- emesis (piglets [1]): recovered from emesis
- symptoms caused by increase in serotonin levels (piglets [1]): can block the symptoms
- temperature (piglets [1]): slight improvement in lowering the temperature

Molecule: COc1ccc2c(c[n+](C)c3c4cc5c(cc4ccc23)OCO5)c1OC [Chelerythrine]
- effect on SEB-induced TNF-alpha production (TNF-α): blocked production of TNF-α
- effect on SEB-induced proliferation (human lymphoid cells): effectively blocked

Molecule: O=c1c(-c2ccc(O)cc2)coc2cc(O[C@@H]3O[C@H](CO)[C@@H](O)[C@H](O)[C@H]3O)cc(O)c12 [Genistin]
- animals showing this outcome (piglets [2]): 2/2
- changes in toxin-induced symptoms compared to the untreated controls (piglets [2]): did not show any significant changes
- pathology versus SEB controls (piglets [2]): No discernable change in pathology

Molecule: CO[C@H]1[C@@H](OC)C[C@H](C)[C@@H](OC)C2=CC(=O)C=C(NC(=O)/C(C)=C/C=C\[C@H](OC)[C@@H](OC(N)=O)/C(C)=C/[C@@H]1C)C2=O [Herbimycin]
- animals showing this outcome (piglets [2]): 2/2
- changes in toxin-induced symptoms compared to the untreated controls (piglets [2]): did not show any significant changes
- pathology versus SEB controls (piglets [2]): No discernable change in pathology
- rescuing the animals (piglets [2]): partially effective

Molecule: CN1C2CCCC1CC(NC(=O)c1nn(C)c3ccccc13)C2 (stereo not shown) [Kytril]
- diarrhea (piglets [1]): diarrhea was stopped
- effectiveness as 5-HT receptor blockers against SEB-induced incapacitation (piglets [1]): effective
- symptoms caused by increase in serotonin levels (piglets [1]): can block the symptoms

Molecule: C[S+]([O-])c1ccc(-c2nc(-c3ccncc3)c(-c3ccc(F)cc3)[nH]2)cc1 (stereo not shown) [P-38 inhibitor]
- effect on induction of the TNF-α gene by SEB (TNF-α): brought down back to control levels
- effect on SEB induction of CD69 (CD69): clearly blocked
- effect on SEB-induced proliferation (human lymphoid cells): clearly inhibited

Molecule: CC(=O)CCCCn1c(=O)c2c(ncn2C)n(C)c1=O [Pentoxifylline]
- animals showing this pathology (piglets [2]): 3/3
- animals survived after the treatment (piglets [2]): 3 out of 3
- animals with moderate pathology (piglets [2]): 2/3
- animals worse-off, similar to SEB control (piglets [2]): 1/3
- gross pathology findings (piglets [2]): No perirenal or mesenteric edema, though there is mesenteric lymphadenopathy
- pathology (piglets [2]): Mild pathology; also recorded: Moderate pathology
- time post exposure to SEB up to which it works well (piglets [2]): up to 4 hours
